Experimental findings from PMC3669377, “Purification, Cloning, Characterization and Essential Amino Acid Residues Analysis of a New ι-Carrageenase from Cellulophaga sp. QY3” (PLoS ONE, 2013) are described below.

The target in the assay is T1, CgiA_Ce (Cellulophaga sp. QY3, UniProt M1EU02).
T1 construct: gene cgiA; native secreted enzyme purified from culture supernatant; mature, putative signal peptide M1-S41 removed (precursor 492 residues); monomer
T1 sequence (M1EU02 42-492): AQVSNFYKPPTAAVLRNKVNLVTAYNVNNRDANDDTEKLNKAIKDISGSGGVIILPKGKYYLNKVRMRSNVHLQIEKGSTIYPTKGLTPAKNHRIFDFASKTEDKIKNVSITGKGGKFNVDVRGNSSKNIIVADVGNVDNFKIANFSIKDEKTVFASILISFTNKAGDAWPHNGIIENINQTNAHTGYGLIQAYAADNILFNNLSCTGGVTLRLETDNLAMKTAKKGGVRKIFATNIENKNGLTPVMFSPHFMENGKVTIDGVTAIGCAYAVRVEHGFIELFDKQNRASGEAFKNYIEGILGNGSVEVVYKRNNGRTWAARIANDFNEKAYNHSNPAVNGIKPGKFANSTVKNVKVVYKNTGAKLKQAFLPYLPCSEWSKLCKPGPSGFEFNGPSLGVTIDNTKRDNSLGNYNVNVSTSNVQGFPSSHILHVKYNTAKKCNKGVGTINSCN
Put plainly: FACE analysis of hydrolysis products. The following applies: pH 7.0, 45°C; 10 mg/ml substrate; minimum substrate; products neo-iota-carrabiose and neo-iota-carratetraose. Type of assay: biochemical.

On to `O=S(=O)(O)O[C@@H]1[C@H](O[C@H]2O[C@@H]3CO[C@@H]([C@H]3O[C@@H]3O[C@H](CO)[C@H](OS(=O)(=O)O)[C@H](O[C@H]4O[C@@H]5CO[C@@H]([C@H]5O)[C@H]4OS(=O)(=O)O)[C@H]3O)[C@H]2OS(=O)(=O)O)[C@@H](O)[C@H](O[C@@H]2[C@@H]3OC[C@H]2O[C@H](O[C@H]2[C@@H](OS(=O)(=O)O)[C@@H](CO)OC(O)[C@@H]2O)[C@@H]3OS(=O)(=O)O)O[C@@H]1CO` (stereo partly shown) [DP6, neo-ι-carrahexaose], for which the “FACE analysis of hydrolysis products” value is “Neo-ι-carrahexaose was the shortest chain that can be recognized and cleaved by CgiA_Ce”.
